Results reported in patent US12637478B2, “Compound, preparation method thereof, and antibiotic composition comprising same” (priority 2020, dated 2026).
Converted amounts (≈) assume the structure as drawn. Read-outs that look alike come from different tables or passages of the source.

Experiments:
E. faecalis = assay: MIC by broth microdilution (aerobic pathogens), test strain 7; format: cell-based; conditions: Enterococcus faecalis
Method: (§1) The antibacterial activity of the compounds of Examples 1 to 48 of the present invention against aerobic pathogens were evaluated by measuring the minimum concentration of the antibiotic capable of inhibiting bacterial growth by 90% compared to the growth of the non-drug treated control group. MIC was measured by the broth microdilution method based on CLSI standards [Reference: Clinical and Laboratory Standards Institute Document. (2000) Methods for Dilution Antimicrobial Susceptibility Test for Bacteria that Grow Aerobically-Fifth Edition: M7-A5. CLSI, Villanova, PA].
(§2) All 13 strains such as methicillin susceptible Staphylococcus aureus (MSSA), methicillin resistant Staphylococcus aureus (MRSA), Vancomycin resistant Staphylococcus aureus (VRSA), Staphylococcus epidermidis, methicillin resistant Staphylococcus epidermidis, Enterococcus faecalis, Vancomycin resistant Enterococcus faecalis, Enterococcus faecium, Vancomycin resistant Enterococcus faecium were used.

S. aureus^MS [1] = assay: MIC by broth microdilution (aerobic pathogens), test strain 1; format: cell-based; conditions: Staphylococcus aureus
Method: as §1, §2

S. epidermis^MR = assay: MIC by broth microdilution (aerobic pathogens), test strain 6; format: cell-based, Methicillin resistant Staphylococcus epidermidis; conditions: Staphylococcus epidermidis
Method: as §1, §2

E. faecium = assay: MIC by broth microdilution (aerobic pathogens), test strain 10; format: cell-based; conditions: Enterococcus faecium
Method: as §1, §2

E. faecium^LinR = assay: MIC by broth microdilution (aerobic pathogens), test strain 12; format: cell-based, Linezolid resistant Enterococcus faecium; conditions: Enterococcus faecium
Method: as §1, §2

S. aureus^MS [2] = assay: MIC by broth microdilution (aerobic pathogens), test strain 2; format: cell-based; conditions: Staphylococcus aureus
Method: as §1, §2

E. faecium^VRE = assay: MIC by broth microdilution (aerobic pathogens), test strain 11; format: cell-based, Vancomycin resistant Enterococcus faecium; conditions: Enterococcus faecium
Method: as §1, §2

S. epidermis = assay: MIC by broth microdilution (aerobic pathogens), test strain 5; format: cell-based; conditions: Staphylococcus epidermidis
Method: as §1, §2

S. aureus^VR = assay: MIC by broth microdilution (aerobic pathogens), test strain 4; format: cell-based, Vancomycin resistant Staphylococcus aureus; conditions: Staphylococcus aureus
Method: as §1, §2

E. faecalis^VanA = assay: MIC by broth microdilution (aerobic pathogens), test strain 8; format: cell-based, Vancomycin resistant Enterococcus faecalis; conditions: Enterococcus faecalis
Method: as §1, §2

S. aureus^MR = assay: MIC by broth microdilution (aerobic pathogens), test strain 3; format: cell-based, Methicillin resistant Staphylococcus aureus; conditions: Staphylococcus aureus
Method: as §1, §2

E. faecalis^LinR = assay: MIC by broth microdilution (aerobic pathogens), test strain 9; format: cell-based, Linezolid resistant Enterococcus faecalis; conditions: Enterococcus faecalis
Method: as §1, §2

C. difficile 159 = assay: MIC by agar dilution against Clostridioides difficile, test strain 15; format: cell-based
C. difficile 152 = assay: MIC by agar dilution against Clostridioides difficile, test strain 14; format: cell-based
C. difficile 174 = assay: MIC by agar dilution against Clostridioides difficile, test strain 18; format: cell-based
C. difficile 9689 = assay: MIC by agar dilution against Clostridioides difficile, test strain 13; format: cell-based
C. difficile 161 = assay: MIC by agar dilution against Clostridioides difficile, test strain 16; format: cell-based
C. difficile 173 = assay: MIC by agar dilution against Clostridioides difficile, test strain 17; format: cell-based; conditions: test strain 17, C. difficile 173, anaerobic, agar dilution, read-out: MIC
M. abscessus = assay: MIC by resazurin (REMA) assay against Mycobacterium, test strain 23; format: cell-based; conditions: Mycobacteroides abscessus; test strain 23, M. abscessus, resazurin; read-out: MIC
Method: In order to test the antibacterial activity, the medium of Mycobacterium cultured to late log phase was diluted so as to be 4.0×10^5 cells/well in Middlebrook 7H10 agar medium (Difco) supplemented with 10% oleic acid, albumin, dextrose, catalase (OADC, Becton Dickinson) and 0.05% Tween 80 (Sigma Aldrich) and was dispensed into a 96-well plate. The compounds were treated so that DMSO was 1%, and after 3 days, a 0.025% resazurin (REMA) solution was dispensed, and the growth of the bacteria was confirmed after culturing. The MIC value was measured for the antibacterial activity through resazurin (excitation 530 nm, emission 590 nm).

C. difficile 181 = assay: MIC by agar dilution against Clostridioides difficile, test strain 19; format: cell-based; conditions: test strain 19, C. difficile 181, anaerobic, agar dilution, read-out: MIC
[3] = test strain 7, E. faecalis, read-out: MIC
[4] = test strain 1, S. aureus^MS, read-out: MIC
[5] = test strain 6, S. epidermis^MR (methicillin resistant), read-out: MIC
[6] = test strain 10, E. faecium, read-out: MIC
[7] = test strain 12, E. faecium^LinR (linezolid resistant), read-out: MIC
[8] = test strain 2, S. aureus^MS, read-out: MIC
[9] = test strain 11, E. faecium^VRE (vancomycin resistant), read-out: MIC
[10] = test strain 5, S. epidermis, read-out: MIC
[11] = test strain 4, S. aureus^VR (vancomycin resistant), read-out: MIC
[12] = test strain 8, E. faecalis^VanA (vancomycin resistant), read-out: MIC
[13] = test strain 3, S. aureus^MR (methicillin resistant), read-out: MIC
[14] = test strain 9, E. faecalis^LinR (linezolid resistant), read-out: MIC
[15] = test strain 15, C. difficile 159, anaerobic, agar dilution, read-out: MIC
[16] = test strain 14, C. difficile 152, anaerobic, agar dilution, read-out: MIC
[17] = test strain 18, C. difficile 174, anaerobic, agar dilution, read-out: MIC
[18] = test strain 13, C. difficile 9689, anaerobic, agar dilution, read-out: MIC
[19] = test strain 16, C. difficile 161, anaerobic, agar dilution, read-out: MIC

SMILES | MIC (E. faecalis; [3]) [µg/mL] | MIC (S. aureus^MS [1]; [4]) [µg/mL] | MIC (S. epidermis^MR; [5]) [µg/mL] | MIC (E. faecium; [6]) [µg/mL] | MIC (E. faecium^LinR; [7]) [µg/mL] | MIC (S. aureus^MS [2]; [8]) [µg/mL] | MIC (E. faecium^VRE; [9]) [µg/mL] | MIC (S. epidermis; [10]) [µg/mL] | MIC (S. aureus^VR; [11]) [µg/mL] | MIC (E. faecalis^VanA; [12]) [µg/mL] | MIC (S. aureus^MR; [13]) [µg/mL] | MIC (E. faecalis^LinR; [14]) [µg/mL] | MIC (E. faecalis) [µg/mL] | MIC (S. aureus^MS [1]) [µg/mL] | MIC (S. epidermis^MR) [µg/mL] | MIC (E. faecium) [µg/mL] | MIC (E. faecium^LinR) [µg/mL] | MIC (S. aureus^MS [2]) [µg/mL] | MIC (E. faecium^VRE; VRE) [µg/mL] | MIC (S. epidermis) [µg/mL] | further results
C/C=C(\NC(=O)c1csc(-c2csc(-c3ccc4c(n3)-c3csc(n3)[C@H]([C@@H](C)O)NC(=O)c3csc(n3)[C@H](C(C)C)NC(=O)c3csc(n3)/C(=C/C)NC(=O)[C@H]([C@@H](C)O)NC(=O)c3csc-4n3)n2)n1)C(=O)NCCN1CCN(C)CC1 [Compound 46] | 0.5 (≈ 0.412 µM) | 0.5 (≈ 0.412 µM) | 0.25 (≈ 0.206 µM) | 0.25 (≈ 0.206 µM) | 0.5 (≈ 0.412 µM) | 0.5 (≈ 0.412 µM) | 0.5 (≈ 0.412 µM) | 0.25 (≈ 0.206 µM) | 0.5 (≈ 0.412 µM) | 0.5 (≈ 0.412 µM) | 1 (≈ 0.825 µM) | 0.25 (≈ 0.206 µM) | – | – | – | – | – | – | – | – | –
CC(=O)NC[C@H]1CN(c2ccc(N3CCOCC3)c(F)c2)C(=O)O1 [Lin, Linezolid, reference compound] | 2 (≈ 5.93 µM) | 2 (≈ 5.93 µM) | 1 (≈ 2.96 µM) | 4 (≈ 11.9 µM) | 32 (≈ 94.9 µM) | 1 (≈ 2.96 µM) | 2 (≈ 5.93 µM) | 1 (≈ 2.96 µM) | 8 (≈ 23.7 µM) | 2 (≈ 5.93 µM) | 4 (≈ 11.9 µM) | 64 (≈ 190 µM) | – | – | – | – | – | – | – | – | –
C/C=C(\NC(=O)c1csc(-c2csc(-c3ccc4c(n3)-c3csc(n3)[C@H]([C@@H](C)O)NC(=O)c3csc(n3)[C@H](C(C)C)NC(=O)c3csc(n3)/C(=C/C)NC(=O)[C@H]([C@@H](C)O)NC(=O)c3csc-4n3)n2)n1)C(=O)NCCCN1C(=O)CNC1=O [Compound 40] | – | – | – | – | – | – | – | – | – | – | – | – | 0.25 (≈ 0.204 µM) | 0.5 (≈ 0.408 µM) | 0.25 (≈ 0.204 µM) | 0.5 (≈ 0.408 µM) | 1 (≈ 0.815 µM) | 0.5 (≈ 0.408 µM) | 1 (≈ 0.815 µM) | 0.5 (≈ 0.408 µM) | MIC (C. difficile 159; 159): 1 µg/mL (≈ 0.815 µM); MIC (C. difficile 152; 152): 0.5 µg/mL (≈ 0.408 µM); MIC (C. difficile 174; 174): 0.5 µg/mL (≈ 0.408 µM); MIC (C. difficile 9689; 9689): 1 µg/mL (≈ 0.815 µM); MIC (S. aureus^VR): 0.5 µg/mL (≈ 0.408 µM); MIC (E. faecalis^VanA): 0.5 µg/mL (≈ 0.408 µM); MIC (C. difficile 161; 161): 0.5 µg/mL (≈ 0.408 µM); MIC (S. aureus^MR): 1 µg/mL (≈ 0.815 µM); MIC (E. faecalis^LinR): 0.5 µg/mL (≈ 0.408 µM)
C/C=C1\NC(=O)[C@H]([C@@H](C)O)NC(=O)c2csc(n2)-c2ccc(-c3nc(-c4nc(C(=O)NC5(C(=O)NCCCN6C(=O)CNC6=O)CC5)cs4)cs3)nc2-c2csc(n2)[C@H]([C@@H](C)O)NC(=O)c2csc(n2)[C@H](C(C)C)NC(=O)c2csc1n2 [Compound 9] | 0.25 (≈ 0.204 µM) | 0.25 (≈ 0.204 µM) | 0.25 (≈ 0.204 µM) | 0.5 (≈ 0.408 µM) | 0.5 (≈ 0.408 µM) | 0.25 (≈ 0.204 µM) | 1 (≈ 0.815 µM) | – | 1 (≈ 0.815 µM) | 0.5 (≈ 0.408 µM) | 1 (≈ 0.815 µM) | 0.5 (≈ 0.408 µM) | – | – | – | – | – | – | – | 0.125 (≈ 0.102 µM) | MIC (C. difficile 173): 0.06 µg/mL (≈ 0.0489 µM); MIC (C. difficile 159; [15]): 0.5 µg/mL (≈ 0.408 µM); MIC (C. difficile 152; [16]): 0.06 µg/mL (≈ 0.0489 µM); MIC (C. difficile 174; [17]): 0.06 µg/mL (≈ 0.0489 µM); MIC (C. difficile 9689; [18]): 0.5 µg/mL (≈ 0.408 µM); MIC (M. abscessus): 0.37 µg/mL (≈ 0.302 µM); MIC (C. difficile 181): 0.25 µg/mL (≈ 0.204 µM); MIC (C. difficile 161; [19]): 0.5 µg/mL (≈ 0.408 µM)
CN[C@H](CC(C)C)C(=O)N[C@H]1C(=O)N[C@@H](CC(N)=O)C(=O)N[C@H]2C(=O)N[C@H]3C(=O)N[C@H](C(=O)N[C@H](C(=O)O)c4cc(O)cc(O)c4-c4cc3ccc4O)[C@H](O)c3ccc(c(Cl)c3)Oc3cc2cc(c3O[C@@H]2O[C@H](CO)[C@@H](O)[C@H](O)[C@H]2O[C@H]2C[C@](C)(N)[C@H](O)[C@H](C)O2)Oc2ccc(cc2Cl)[C@H]1O [Van, Vancomycin, reference compound] | – | – | – | – | – | – | – | – | – | – | – | – | 1 (≈ 0.69 µM) | 0.5 (≈ 0.345 µM) | 0.5 (≈ 0.345 µM) | 0.5 (≈ 0.345 µM) | 0.5 (≈ 0.345 µM) | 0.25 (≈ 0.173 µM) | > 128 | 1 (≈ 0.69 µM) | MIC (C. difficile 173): 0.5 µg/mL (≈ 0.345 µM); MIC (C. difficile 159; [15]): 2 µg/mL (≈ 1.38 µM); MIC (C. difficile 152; [16]): 1 µg/mL (≈ 0.69 µM); MIC (C. difficile 174; [17]): 0.5 µg/mL (≈ 0.345 µM); MIC (C. difficile 9689; [18]): 2 µg/mL (≈ 1.38 µM); MIC (S. aureus^VR): > 128 µg/mL; MIC (C. difficile 181): 0.5 µg/mL (≈ 0.345 µM); MIC (E. faecalis^VanA): > 128 µg/mL; MIC (C. difficile 161; [19]): 1 µg/mL (≈ 0.69 µM); MIC (S. aureus^MR): 0.5 µg/mL (≈ 0.345 µM); MIC (E. faecalis^LinR): 1 µg/mL (≈ 0.69 µM)
